These compounds were tested against T1, GSK3β (Homo sapiens, UniProt P49841) (assay: GSK3β biochemical in vitro assay (coupled pyruvate kinase/lactate dehydrogenase, NADH fluorescence)). Conditions: 5 nM GSK3β, 50 μM ATP, 40 μM GSM substrate, 30° C., 2 hours.
T1 construct: purchased Upstate 14-306
Procedure: The inhibitory activity of active substances is determined in a biochemical assay. The ingredients required for this purpose are mixed in a black 384-well microtitre plate with transparent base (from Greiner, catalogue number 781092). The requirements in this connection for each well of the 384-well microtitre plate are 5 nM GSK3β (from Upstate, catalogue number 14-306), 40 μM GSK3β substrate GSM (sequence H-RRRPASVPPSPSLSRHS-(pS)-HQRR, from Upstate, catalogue number 2-533), 30 μM nicotinamide adenine dinucleotide NADH (Roche Diagnostics, catalogue number 10107735), 50 μM adenosine triphosphate ATP (from Sigma, catalogue number A7966), 2 mM phosphoenolpyruvate (from Roche, catalogue number 128112), and also about 1 U/ml of pyruvate kinase and about 1 U/ml of lactate dehydrogenase, which are present together in a stock formulation (from Roche, catalogue number 10737291001, suspension with about 450 U/ml of pyruvate kinase activity, about 450 U/ml of lactate dehydrogenase activity in […] ammonium sulphate solution pH 6), where 1 unit pyruvate kinase converts, at pH 7.6 and 37° C., 1 μmol of phosphoenolpyruvate into pyruvate per minute, and where 1 unit of lactate dehydrogenase reduces, at pH 7.5 and 37° C., 1 μmol of pyruvate to lactate per minute. The required reaction buffer in which the biochemical reaction takes place consists of 50 mM Trizma hydrochloride Tris-HCl pH: 7.5 (from Sigma, catalogue number T3253), 5 mM magnesium chloride MgCl2 (from Sigma, catalogue number M8266), 0.2 mM DL-dithiothreitol DTT (from Sigma, catalogue number D9779), 2 mM ethylenediaminetetraacetic acid EDTA (from Sigma, catalogue number E6758), 0.01% Triton X-100 (from Sigma, catalogue number T8787) and 0.05% bovine serum albumin BSA (from Sigma, catalogue number B4287).
Active substances are dissolved in dimethyl sulphoxide DMSO (from Sigma, catalogue number D8418) in a concentration of 10 mM. Active substances are added in serial concentrations of 10 μM, 1 μM, 0.1 μM, 0.01 μM, 0.001 μM, 0.0001 μM, 0.00001 μM, 0.000001 μM to the mixtures of the biochemical reaction. As control, dimethyl sulphoxide is added instead of substance in a final concentration of 0.1%.
The reaction is incubated at 30° C. for 2 hours and then the resulting fluorescence is measured in a Tecan Safire-XFLUOR4 instrument, version V4.50 (serial number 12901300283) with the specifications: measurement mode—fluorescence measured from below, excitation wavelength 340 nm, emission wavelength 465 nm, slit width excitation 5 nm, slit width emission 5 nm, gain mode 120, delay 0 μs, number of light flashes per measurement 3, and an integration time of 40 μs.
The activity of the active substances is calculated in relation to these 0% and 100%.

T1 sequence (P49841 whole entry): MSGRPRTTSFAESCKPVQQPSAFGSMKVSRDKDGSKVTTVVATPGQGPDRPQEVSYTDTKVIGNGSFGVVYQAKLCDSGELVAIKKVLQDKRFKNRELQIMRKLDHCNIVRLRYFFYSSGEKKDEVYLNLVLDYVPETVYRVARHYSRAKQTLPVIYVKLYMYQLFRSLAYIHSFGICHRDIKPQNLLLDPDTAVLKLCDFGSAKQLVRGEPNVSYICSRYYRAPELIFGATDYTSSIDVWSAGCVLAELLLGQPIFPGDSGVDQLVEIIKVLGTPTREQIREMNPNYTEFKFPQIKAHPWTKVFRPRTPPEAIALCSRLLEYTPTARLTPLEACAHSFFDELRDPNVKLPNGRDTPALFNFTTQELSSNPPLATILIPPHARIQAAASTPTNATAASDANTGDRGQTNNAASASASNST

Compound | IC50
Nc1nc(NCCNc2nc(-c3ccc(Cl)cc3Cl)cn3ncnc23)ccc1C(=O)C(F)(F)F [Example 6, 1-{2-Amino-6-[(2-{[6-(2,4-dichlorophenyl)[1,2,4]triazolo[1,5-a]pyrazin-8-yl]amino}ethyl)amino]-pyridin-3-yl}-2,2,2-trifluoroethanone] | 13 nM
Nc1nc(NCCNc2nc(-c3ccc(Cl)cc3Cl)nn3cnnc23)ccc1C(=O)C(F)(F)F [Example 8, 1-{2-Amino-6-[(2-{[6-(2,4-dichlorophenyl)[1,2,4]triazolo[3,4-f][1,2,4]triazin-8-yl]amino}ethyl)-amino]pyridin-3-yl}-2,2,2-trifluoroethanone] | 9.1 nM
CCC(=O)c1ccc(NC2CCCN(c3nc(-c4ccc(Cl)cc4Cl)nn4cnnc34)C2)nc1N (stereo not shown) [Example 11, 1-[2-Amino-6-({1-[6-(2,4-dichlorophenyl) [1,2,4]triazolo[3,4-f][1,2,4]triazin-8-yl]piperidin-3-yl}-amino)pyridin-3-yl]propan-1-one] | 4.4 nM
N#Cc1sc(NCCNc2nc(-c3ccc(Cl)cc3Cl)cn3ncnc23)nc1N [Example 15, 4-Amino-2-[(2-{[6-(2,4-dichlorophenyl)[1,2,4]triazolo[1,5-a]pyrazin-8-yl]amino}ethyl)amino]-1,3-thiazole-5-carbonitrile] | 3.2 nM

— US20090258877A1, “TRIAZOLOTRIAZINES AND TRIAZOLOPYRAZINES AND THEIR USE” (BAYER HEALTHCARE AG, priority 2007, published 2009)
